Test results published in US8476274B2, “Biaryl spiroaminooxazoline analogues as Alpha2C adrenergic receptor modulators” (Merck Sharp & Dohme Corp., priority 2008, dated 2013).

What follows are compounds tested against T1, α2C receptor (Homo sapiens, UniProt P18825) (assay: binding inhibition (Ki) at the α2C receptor). Conditions: compounds classed as α2C antagonists; read-out: Ki at the α2C receptor subtype.
T1 sequence (P18825 1-462): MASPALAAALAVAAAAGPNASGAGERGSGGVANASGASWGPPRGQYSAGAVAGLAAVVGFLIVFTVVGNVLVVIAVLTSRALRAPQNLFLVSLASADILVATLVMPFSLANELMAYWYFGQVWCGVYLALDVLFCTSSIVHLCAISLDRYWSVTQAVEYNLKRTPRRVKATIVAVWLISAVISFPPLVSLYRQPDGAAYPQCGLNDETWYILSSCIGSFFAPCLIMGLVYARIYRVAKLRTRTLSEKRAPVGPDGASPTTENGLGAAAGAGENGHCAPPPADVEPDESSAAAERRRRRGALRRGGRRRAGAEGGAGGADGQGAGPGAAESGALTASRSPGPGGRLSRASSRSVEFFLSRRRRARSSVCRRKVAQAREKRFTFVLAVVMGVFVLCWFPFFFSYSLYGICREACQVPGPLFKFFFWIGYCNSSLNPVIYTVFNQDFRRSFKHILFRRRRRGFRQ
Protocol: A compound is defined to be an antagonist of the alpha-2C receptor if the compounds's efficacy at the α2C receptor is <30% Emax (GTPγS assay) and the binding inhibition of at the α2C receptor (Ki) is <500 nM, preferably <200 nM, and most preferably <20 nM.
Efficacy agonist activity values (Emax, GTPγS assay) for α2A and α2C were determined by following the general procedure detailed by Umland et. al (“Receptor reserve analysis of the human α2c-adrenoceptor using [^35S]GTPγS and cAMP functional assays” European Journal of Pharmacology 2001, 411, 211-221). For the purposes of the present invention, a compound is defined to be a specific or at least functionally selective agonist of the α2C receptor subtype if the compound's efficacy at the α2C receptor is ≧30% Emax (GTPγS assay) and its efficacy at the α2A receptor is 35% Emax (GTPγS assay). Additionally, for the purposes of this invention, a compound is defined to be an antagonist of the α2C receptor subtype if the compound's efficacy at the α2C receptor is <30% Emax (GTPγS assay) and the Ki at the α2C receptor subtype was <500 nM, preferentially <200 nM, and most preferentially <20 nM.

Ki, < 200 nM:
Cn1nccc1-c1cccc2c1CC[C@]1(COC(N)=N1)C2 [Compound 21J]
NC1=N[C@@]2(CCc3c(cccc3-c3ccoc3)C2)CO1 [Compound 21I]
COc1ccc(-c2cncnc2)c2c1CCC1(COC(N)=N1)C2 (racemic) [(±)-16]
NC1=N[C@@]2(CCc3cccc(-c4cccnc4)c3C2)CO1 [Compound 145]
NC1=NC2(CO1)Cc1ccc(-c3cccnc3)cc1C2 (racemic) [(±)-8I]
NC1=N[C@]2(CCc3c(cccc3-c3cncs3)C2)CO1 [Compound 119]
Cc1ccncc1-c1cccc2c1C[C@]1(CC2)COC(N)=N1 [Compound 150]
Cc1noc(C)c1-c1cccc2c1CC1(CC2)COC(N)=N1 (racemic) [(±)-113]
CN(C)c1ncc(-c2cccc3c2CC2(CC3)COC(N)=N2)cn1 (racemic) [(±)-3]
NC1=NC2(CCO1)CCc1c(cccc1-c1cncnc1)C2 (racemic) [(±)-57]
NC1=N[C@@]2(CCc3c(cccc3-c3ccco3)C2)CN1 [Compound 238]
Cc1noc(C)c1-c1ccc2c(c1)CC1(COC(N)=N1)C2 (racemic) [(±)-8S]
NC1=NC2(CCc3c(cccc3-c3cncs3)C2)CO1 (racemic) [(±)-129]
N#Cc1cccc(-c2cccc3c2CC2(CC3)COC(N)=N2)c1 (racemic) [(±)-6J]
CC1=N[C@@]2(CCc3c(cccc3-c3cncnc3)C2)CN1 [Compound 213]
NC1=NC2(CO1)Cc1ccc(-c3ccccc3)cc1C2 (racemic) [(±)-8E]
Cc1n[nH]c(C)c1-c1cccc2c1CC1(CC2)COC(N)=N1 (racemic) [(±)-114]
NC1=N[C@@]2(CCc3cccc(-c4ccccc4)c3C2)CO1 [Compound 143]
N#Cc1ccc(-c2cccc3c2CC2(CC3)COC(N)=N2)cc1 (racemic) [(±)-6K]
Cn1nccc1-c1cccc2c1CC1(CC2)COC(N)=N1 (racemic) [(±)-6L]
Cc1ccncc1-c1cccc2c1C[C@@]1(CC2)COC(N)=N1 [Compound 151]
Cn1nccc1-c1ccc2c(c1)CC1(COC(N)=N1)C2 (racemic) [(±)-8R]
NC1=NC2(CCc3cccc(-c4ccccc4)c3C2)CO1 (racemic) [(±)-1G]
Cc1n[nH]c(C)c1-c1ccc2c(c1)CC1(CC2)COC(N)=N1 (racemic) [(±)-101]
NC1=NC2(CCc3ccc(-c4cccnn4)cc3C2)CO1 (racemic) [(±)-11]
COc1ncc(-c2cccc3c2CCC2(COC(N)=N2)C3)cn1 (racemic) [(±)-133]
Cc1noc(C)c1-c1cccc2c1CC1(COC(N)=N1)C2 (racemic) [(±)-50M]
CC1CC2(COC(N)=N2)Cc2cccc(-c3cncnc3)c21 (racemic) [(±)-58]
NC1=NC2(CO1)Cc1ccc(-c3cncnc3)cc1C2 (racemic) [(±)-8]
NC1=N[C@]2(CCc3cccc(-c4cncnc4)c3C2)CO1 [Compound 149]
NC1=NC2(CO1)Cc1cccc(-c3cn[nH]c3)c1C2 (racemic) [(±)-50K]
Cc1n[nH]c(C)c1-c1cccc2c1CC1(COC(N)=N1)C2 (racemic) [(±)-50L]
Cc1ncnc(C)c1-c1ccc2c(c1)CC1(CC2)COC(N)=N1 (racemic) [(±)-10B]
NC1=N[C@@]2(CCc3ccc(-c4cncnc4)cc3C2)CO1 [Compound 142]
NC1=N[C@@]2(CCc3c(cccc3-c3cccnc3)C2)CO1 [Compound 21K]
NC1=N[C@]2(CCc3cc(Br)ccc3C2)CO1 (racemic) [(±)-340]
COc1cncc(-c2cccc3c2CC2(CC3)COC(N)=N2)c1 (racemic) [(±)-112]
